Test results reported in article PMC4215638, “J-147 a Novel Hydrazide Lead Compound to Treat Neurodegeneration: CeeTox™ Safety and Genotoxicity Analysis” (Journal of neurology & neurophysiology, 2013).

Assay: Drug solubility in culture medium (light scattering, Nepheloskan)
Type: physicochemical
Settings: complete culture medium with serum; medium with 10% bovine serum and 10% calf serum, 37°C; read-out: Solubility in the culture medium system
Protocol: The final concentration of DMSO in the 0–100 μM solutions was 0.5% and at the 300 μM solution DMSO was 1.5%. The final dosing solutions were prepared in Eagles Minimum Essential Medium. All experiments that used DMSO as the drug solvent also included a DMSO negative control. Negative controls of medium plus DMSO (0.5%) were included with and without cells. A positive control for complete cell death received 1 mM digitonin in medium on the day of dosing.
The samples were evaluated using light scattering with a Nepheloskan instrument. A reading that was greater than or equal to 3 times background was considered the limit of solubility.

COc1cccc(/C=N/N(C(=O)C(F)(F)F)c2ccc(C)cc2C)c1 [J-147, (E)-N-(2,4-Dimethylphenyl)-2,2,2-trifluoro-N′-(3-methoxybenzylidene) acetohydrazide]
solubility: ≥ 300 µM
